From US20250255876A1, “COMPOSITIONS AND METHODS FOR CANCER TREATMENT” (ARIEL SCIENTIFIC INNOVATIONS LTD., priority 2021, published 2025)
pKd: −log10 of the molar value. Entries after “also recorded” stand apart in the source; their conditions may differ.

Columns and labels:
B16F10 cells [1] = test: B16F10 subcutaneous tumor in C57BL mice, intratumoral injection; assay type: in vivo, mouse
Description: FIGS. 17A-17E are micrographs and graphs showing that C#3 prevents tumor growth. 2*106 B16F10 cells were injected to the left flank of C57BL mice. After three days different treatments, as indicated, were injected to the newly formed tumor. (17A) tumor size (mm3) was measured daily for each mouse. In the co-treatment, almost no change in tumor size was observed, in the first three days. (17B) representative images of three tumors from each treatment group. (17C) For each treatment the fold-change in the volume of each day was compared to day 0. […] (17D) The co-treated group presented less developed tumors, which comprised about 2-3% of mice weight. (17E) H&E staining of a representative tumor from each group. Number of mice for each group in this experiment: DMSO n=7, cisplatin n=10, cisplatin+c #3 n=10, c #3 n=9. SD=1. P-values were calculated by one-tailed t-test. C#3 prevents tumor growth. To test the effect of c #3 in-vivo, we used a […] mouse model of C57BL mice. B16F10 cells were injected to the mouse's left flank and allowed to form a subcutaneous tumor. Next, we injected directly to the tumor DMSO, cisplatin, cisplatin+c #3 1 mg/kg, or c #3 alone, and tumor size was measured each day, up to 6 days. […] DNA damage burden in these fast-growing tumors is high, and TLS inhibition using c #3 prevents repair and enhances cell death. […]

MAD2L2 = MAD2L2 (Homo sapiens, UniProt Q9UI95); test: Field Effect Biosensing (FEB) binding assay; design: made in house; host or cells: E. coli BL21 Star
Description: E. coli BL21 Star cells were transfected with GST-MAD2L2 vector. Protein induction was done for 4 hours in 30° C., with 1 mM IPTG. Purification was done according to standard GST protocol.
The binding kinetics of MAD2L2 to the small molecule compounds were measured by the Field Effect Biosensing (FEB) Agile R100 label-free binding assay (Nanomedical Diagnostics Inc), following their standard protocol. Briefly, 500 nM of purified MAD2L2 was immobilized on a graphene sensor chip through amine groups. The current baseline level for the chip was recorded in PBS. Next, PBS was aspirated, and the changes in the baseline current induced by 50 μl of 1, 10, 20, 30, 40 and 50 μM droplets of the tested compound were recorded. KD values were calculated by the DataLine 2.0 software by either a Hill equation fit or by using the kon and koff values at a single concentration. The KD values obtained by these two methods were almost identical.
In order to validate that MAD2L2 is a direct target of c #2 and c #3, the inventors tested the compounds' binding kinetics to a recombinant protein by Field Effect Biosensing (FEB) technology. Briefly, purified GST-MAD2L2 was immobilized onto a graphite chip, and the current across the chip is measured to determine the baseline current. […] The Kon and Koff of the interaction were measured over time and were used to calculate the KD. […]

[2] = tested on: γH2AX foci in B16F10 cells; test: γH2AX foci immunofluorescence, B16F10 cells; assay type: cell-based, mouse
Description: FIGS. 15A-15B3 present micrographs and graphs showing that c #3 increases DNA damage after combined treatment. (15A). Representative figures of TH2AX in A549 cells (left panel), H1975 (middle panel) and B16F10 (right panel) with different treatments as indicated. Quantification of A549 (15B1), H1975(15B2), and B16F10 cells(15B3)′ foci/cell in each treatment. The total number of cells scored is indicated. Error bars=1 SD, P-value was calculated by two-tailed t-test. In all experiments, A549 cells were treated with 10 μM cisplatin and H1975 and B16F10 cells with 5 μM cisplatin. All cell lines were co-treated with 50 μM of c #3. Cells were co-treated for 16 h before analysis.SD=1, The P-value was calculated using a one-tailed t-test.
Combined treatment of cisplatin with c #3 correlates with an increase in DNA damage. Levels of γ-H2AX foci, a marker for DNA double-strand breaks, were compared in H1975, A549 and B16F10 cell lines.

B16F10 cells [3] = test: Colony survival assay, B16F10 cells; assay type: cell-based, mouse
Description: (14B) Colony survival assay of H1975 cell line. (14C) Colony survival assay of A549 cell line. (14D) Colony survival assay of B16F10 cell line. All cell lines were treated with 50 μM c #3 and the indicated concentration of cisplatin for 48 h, then growth media was replaced with normal growth media with no compound. Cells were allowed to recover 4-5 days before staining. For all cell lines, colony survival assay n=3 independent experiments, SD=1. P value was calculated by two-way ANOVA multiple comparison. IC50 was calculated using linear regression for H1975 and A549, and sigmoidal regression for B16F10.
Colony survival assay to compare the relative survival rate of cells treated with cisplatin alone, or with combined treatment of cisplatin and 50 μM of compound 3 (see FIG. 1). Molecule presented preliminary promising results, We tested compound 3 (c #3) on different cancer cell lines: two lung cancer cell lines, (1) human non-small cell lung carcinoma H1975 cells, (2) epithelial lung adenocarcinoma A549 cells, and (3) mouse aggressive melanoma B16F10 cells.

Chain of MAD2L2 (Q9UI95 whole entry): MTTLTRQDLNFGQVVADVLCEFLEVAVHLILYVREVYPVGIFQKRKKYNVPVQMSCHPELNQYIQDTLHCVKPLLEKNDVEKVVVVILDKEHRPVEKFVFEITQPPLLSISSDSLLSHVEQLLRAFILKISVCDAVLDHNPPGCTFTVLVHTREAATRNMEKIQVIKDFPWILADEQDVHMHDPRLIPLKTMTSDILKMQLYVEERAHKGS

In the case of `Cc1oc(-c2ccco2)nc1CC(=O)N[C@@H](C(=O)O)c1ccccc1` [Compound 3], the “tumor growth (tumor volume, fold-change), co-treatment” value (B16F10 cells [1]; cisplatin 1 mg/kg + c #3 1 mg/kg injected into the tumor, listed as c #3) was “prevented tumor growth in the first three days; also recorded: significant growth inhibition when compared to all treatments”, the “tumor histopathology (H&E), co-treatment” value (B16F10 cells [1]; cisplatin + c #3 co-treated, two tumors from each group) was “severe necrosis” and the “affinity to MAD2L2 compared with c #2” value (MAD2L2; from FEB KD values, listed as c #3) was “approximately seven-fold higher; also recorded: sevenfold higher”. The pKd (MAD2L2; purified GST-MAD2L2 immobilized on chip, 1-50 μM compound) was 4.35, the “increase in γ-H2AX foci/cell in co-treated cells” value ([2]; B16F10, 5 μM cisplatin + 50 μM c #3, 16 h) was 2 fold and the “γ-H2AX signal, c #3 alone” value ([2]; B16F10, c #3 alone) was “no effect on the γ-H2AX signal”. The “toxicity, compound alone” value (B16F10 cells [3]; B16F10, 50 μM compound alone) was “caused no toxicity” and the sensitization to cisplatin (B16F10 cells [3]; B16F10, cisplatin + 50 μM c #3, 48 h) was “sensitization to cisplatin treatment”.
